Source: US20150352134A1, “COMPOSITION FOR TOPICAL SKIN APPLICATION CONTAINING GINSENOSIDE F2 DERIVED FROM HYDROPONIC GINSENG” (AMOREPACIFIC CORPORATION, priority 2012, published 2015)

Legend:
[1] = molecular target: T1, PAR-2 (Homo sapiens, UniProt P55085); assay: Itching relief: inflow of Ca2+ into HaCaT keratinocytes after trypsin or PAR-2 activated peptide; format: cell-based
T1 construct: host or cells: HaCaT keratinocytes
T1 sequence (P55085 26-397): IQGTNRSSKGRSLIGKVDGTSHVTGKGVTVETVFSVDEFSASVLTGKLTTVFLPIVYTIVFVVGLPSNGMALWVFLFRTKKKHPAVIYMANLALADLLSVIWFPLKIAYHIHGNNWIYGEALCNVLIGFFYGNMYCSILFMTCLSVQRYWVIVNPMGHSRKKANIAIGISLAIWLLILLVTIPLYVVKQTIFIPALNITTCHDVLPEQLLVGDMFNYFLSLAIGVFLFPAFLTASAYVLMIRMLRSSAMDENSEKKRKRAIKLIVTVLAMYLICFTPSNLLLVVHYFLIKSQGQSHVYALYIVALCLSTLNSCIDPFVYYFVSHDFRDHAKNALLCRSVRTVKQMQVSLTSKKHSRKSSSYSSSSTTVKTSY
Method: One day before the testing, keratinocytes (HaCaT purchased from ATCC) are injected into a 96-well plate at a rate of 4×10^4 cells/well and cultured in an incubator under conditions of 5% CO2 and 37° C. for 24 hours. After 24 hours, the culture plate is washed with HBSS (Hank's Balanced Salt Solution) buffer twice, and a reaction buffer (2 μM Fluo-4-AM, 20% pluronic acid, 2.5 mM probenecid) is added to the cells. The culture plate is kept in an incubator under conditions of 5% CO2 and 37° C. for 30 minutes and allowed to react at the room temperature for 30 minutes. Then, the culture plate is washed with HBSS buffer twice, and the cells are treated with ginsenoside F2 at a concentration (%) as given in Table 25.
After completion of the reaction for 10 minutes, the cells are treated with 2 U/ml trypsin or 5 μM PAR-2 activated peptide (SLIGKV), and then the change of Ca^2+ concentration in the cells for 80 seconds is measured. The measurement method uses FlexStation3® (Molecular Device, U.S.A.). The difference between minimum and maximum flex values for 80 seconds after treatment with 2 U/ml trypsin or 5 μM PAR-2 activated peptide (SLIGKV) in combination with ginsenoside F2 is compared with the difference between minimum and maximum flex values for 80 seconds after treatment with 2 U/ml trypsin or 5 μM PAR-2 activated peptide (SLIGKV) alone.

[2] = system: tyrosinase; assay: Tyrosinase inhibitory effect; format: biochemical, mushrooms; conditions: 37° C., absorbance 475 nm
Method: The tyrosinase as used herein is an enzyme extracted from mushrooms and purchased from Sigma-Aldrich. Firstly, tyrosine as a substrate is dissolved in distilled water to prepare a 0.3 mg/mL solution, which is added dropwise to a test tube at an amount of 1.0 mL each time. To the solution are added 1.0 mL of a potassium phosphate buffer solution (0.1 mol, pH 6.8) and 0.7 mL of distilled water.
0.2 mL of the sample solution is added to the reactant solution and then allowed to have a reaction in a thermostat container at 37° C. for 10 minutes. In this regards, the control is the reactant solution containing 0.2 mL of a solvent alone in place of each sample solution. The positive control uses ascorbic acid. 0.1 mL of a 2500 unit/mL tyrosinase solution is added to the reactant solution, which is then allowed to have a reaction again in a thermostat container at 37° C. for 10 minutes. The test tube filled with the reactant solution is put into an ice water to cause quenching and thus stop the reaction. The absorbance at 475 nm is measured with a photoelectric spectrophotometer. The tyrosinase inhibitory effect is calculated according to the following mathematical formula 3.

[3] = system: Keratinocytes isolated from the human epidermal tissue; assay: Inhibition of reactive oxygen species formation after UVB (DCF-DA fluorescence); format: cell-based; conditions: 1% ginsenoside F2; for ratio to the ROS of the control group, elapsed time after exposure to 30 mJ/cm^2 of UVB 0 hr: 0 hr after 30 mJ/cm^2 UVB; for ratio to the ROS of the control group, elapsed time after exposure to 30 mJ/cm^2 of UVB 2 hrs: 2 hrs after 30 mJ/cm^2 UVB; for ratio to the ROS of the control group, elapsed time after exposure to 30 mJ/cm^2 of UVB 3 hrs: 3 hrs after 30 mJ/cm^2 UVB
Method: 5×10^4 Keratinocytes isolated from the human epidermal tissue are put in each well of a 24-well plate and immobilized for 24 hours. After 16 hours, the keratinocytes are treated with 1% ginsenoside F2. For a comparison, the control group is not treated with ginsenoside F2. Each well is removed of the culture medium after 2 hours and then fed with 100 μl of a phosphate-buffered saline (PBS) solution. The keratinocytes are exposed to 30 mJ/cm^2 of ultraviolet radiation under an ultraviolet B (UVB) lamp (Model: F15T8, UV B 15 W, Sankyo Denki Co., Ltd., Japan). Each well is removed of the PBS solution and then supplied with 200 μl of the keratinocyte culture medium. The well is treated with ginsenoside F2 again. Then, the quantity of the reactive oxygen species (ROS) increased by the UV stimulation is determined at defined time intervals. The quantity of the reactive oxygen species (ROS) is determined according to the method that includes measuring the fluorescence of dichlorofluorescin diacetate (DCF-DA) (Tan et al., 1998, J. Cell Biol. Vol. 141, pp 1423-1432).

[4] = system: 3T3-L1 cells; assay: Lipogenesis inhibition in 3T3-L1 cells (Sudan III dyeing); format: cell-based, mouse; conditions: caffeine 50 μM; visual evaluation of fat accumulation
Method: The mouse fibroblast cell line, 3T3-L1 cells are immobilized in a 6-well culture plate filled with Dulbecco's modified eagle's medium (DMEM) (GIBCO BRL, Life Technologies, Inc.) containing 10% fetal bovine serum (FBS) at an amount of 1×10^5 cells/well. After 2 days, the used medium is replaced with a new DMEM (containing 10% FBS) medium to culture the cells for 2 days. […] After 5 days, the used DMEM medium is replaced with a normal medium (DMEM containing 10% FBS). The cells are cultured and observed until they are morphologically changed into fat cells. In order to evaluate the ginsenoside F2 in regards to the inhibitory effect on the fat accumulation in the fat cells, the completely differentiated 3T3-L1 fat cells are dyed with Sudan III ([…], Sigma-Aldrich). The fat cells are immobilized with 4% para-formaldehyde (pH 7.2) at the room temperature in a phosphate buffer solution. The fat cells are washed with phosphate-buffered saline (PBS) and then dyed with Sudan III. The picture of the fat cells is taken for visual evaluation. The control uses a medium using neither a test substance nor a comparative substance. The comparative control group is treated with 50 μM caffeine. The fat accumulation inhibitory ability is evaluated based on the degree of dying. The degree of dying is graded +++, ++, +, and - in the decreasing order.

[5] = system: Straphylococcus aureus; assay: Antibacterial effect, MIC; format: cell-based, Staphylococcus aureus; conditions: 48 hours, 32°
Method: The antibacterial testing is carried out in order to evaluate the antibacterial effect of ginsenoside F2. The detailed testing method is as follows. Staphylococcus aureus, Escherichia coli, and pseudomonas aeruginosa strains are cultured with a tryptic soy broth, and candida albicans and aspergillus niger strains are cultured with sabouraud dextrose broth. The test bacterial liquid is the 1/100 (1/10 for candida albicans strain) diluted solution of the culture medium diluted with each medium. For aspergillus niger, the test bacterial liquid is the spore suspension prepared to 2×10^8 cfu/ml. 0.15 ml of the test bacterial liquid is added to 15 ml of each culture medium to prepare a well-blended diluted solution. 16 μl of the sample is put into each well on the first row of a 96-well plate, and 184 μl of the diluted solution is added to each well on the first row. Then, 100 μl of the diluted solution is put into each of the other wells. The mixed solution of the first row is sufficiently stirred, and 100 μl of the mixed solution is added to each well on the second row of the 96-well plate and stirred sufficiently. […] 48 hours later, the cell proliferation is determined by the turbidity index and microscopic observation to determine the minimum inhibitory concentration (MIC).

SMILES	Inhibition rate (%) on inflow of Ca^2+ into cells, Trypsin (2 U/ml) ([1]; 0.05% ginsenoside F2) [%]	Inhibition rate (%) on inflow of Ca^2+ into cells, Trypsin (2 U/ml) ([1]; 0.1% ginsenoside F2) [%]	Inhibition rate (%) on inflow of Ca^2+ into cells, Trypsin (2 U/ml) ([1]; 1.0% ginsenoside F2) [%]	inhibition at 0.05 % ([1]; HaCaT, 0.05% ginsenoside F2, read-out: Inhibition rate (%) on inflow of Ca^2+ into cells, PAR-2 activated peptide (5 μM)) [%]	inhibition at 0.1 % ([1]; HaCaT, 0.1% ginsenoside F2, read-out: Inhibition rate (%) on inflow of Ca^2+ into cells, PAR-2 activated peptide (5 μM)) [%]	inhibition at 0.5 % ([1]; HaCaT, 0.5% ginsenoside F2, read-out: Inhibition rate (%) on inflow of Ca^2+ into cells, PAR-2 activated peptide (5 μM)) [%]	inhibition at 1 % ([1]; HaCaT, 1.0% ginsenoside F2, read-out: Inhibition rate (%) on inflow of Ca^2+ into cells, PAR-2 activated peptide (5 μM)) [%]	Tyrosinase inhibition rate (%) [2] [%]	ratio to the ROS of the control group, elapsed time after exposure to 30 mJ/cm^2 of UVB 0 hr [3]	ratio to the ROS of the control group, elapsed time after exposure to 30 mJ/cm^2 of UVB 2 hrs [3]	ratio to the ROS of the control group, elapsed time after exposure to 30 mJ/cm^2 of UVB 3 hrs [3]	Degree of Sudan III staining (visual grade) [4]	MIC (%) Straphylococcus aureus [5] [%]
CC(C)=CCC[C@](C)(O[C@@H]1O[C@H](CO)[C@@H](O)[C@H](O)[C@H]1O)[C@H]1CC[C@]2(C)[C@@H]1[C@H](O)C[C@@H]1[C@@]3(C)CC[C@H](O[C@@H]4O[C@H](CO)[C@@H](O)[C@H](O)[C@H]4O)C(C)(C)[C@@H]3CC[C@]12C [Ginsenoside F2, ginsenoside F2]	23	30	41	26	35	40	47	69	100	251	286	−	0.07
CC(C)=CCC[C@](C)(O[C@@H]1O[C@H](CO[C@@H]2O[C@H](CO)[C@@H](O)[C@H](O)[C@H]2O)[C@@H](O)[C@H](O)[C@H]1O)[C@H]1CC[C@]2(C)[C@@H]1[C@H](O)C[C@@H]1[C@@]3(C)CC[C@H](O[C@@H]4O[C@H](CO)[C@@H](O)[C@H](O)[C@H]4O[C@@H]4O[C@H](CO)[C@@H](O)[C@H](O)[C@H]4O)C(C)(C)[C@@H]3CC[C@]12C [Ginsenoside Rb1]								60	100	302	354		
